{"source": "patent US8653304B2", "about": "“2,3-dihydro-1H-indene-2-yl urea derivative and pharmaceutical application of same” (Toray Industries, Inc., priority 2009, dated 2014)", "key": {"TNFα production": {"tested_on": "TNFα production", "assay": "Cytokine production suppressing activity using human whole blood (LPS stimulation)", "assay_type": "cell-based", "conditions": "LPS 200 ng/mL, 37° C., 5 hours", "experimental": "Using human whole blood, the inhibitory action of Compound (I) on the TNFα production by LPS stimulation was studied by a method partially modified from the method described in Journal of Medicinal Chemistry (2003, Vol. 46, pp. 4676-4686).\nA solution of each test compound in 100% DMSO and human blood were mixed in a 96-well flat-bottom plate. Thereafter, LPS (Final Concentration: 200 ng/mL) was added, and the resulting mixture was allowed to react at 37° C. for 5 hours (the final concentration of DMSO was 0.2%). After the reaction, the resultant was centrifuged for 20 minutes at room temperature, and the supernatant was collected. For the measurement of the TNFα amount in the supernatant, a human cytokine kit (CIS bio international) was used. As a comparative control compound, Comparative Compound 2 was used."}, "HepG2 cells": {"tested_on": "HepG2 cells", "assay": "Ability to induce drug-induced phospholipidosis (HepG2, HCS Lipid TOX Green)", "assay_type": "cell-based, human", "conditions": "48 hours", "experimental": "Whether an ability to induce phospholipidosis by Compound (I) was observed or not was studied. The evaluation of Compound 46b described in the Examples was carried out by a method partially modified from the method described in Experimental and Toxicologic Pathology (2007, Vol. 58, pp. 375-382).\nEach test compound and HCS Lipid TOX Green Phospholipidosis Detection Regent (Invitrogen), which is a phospholipid staining solution, were mixed with HepG2 cells, which are a cell line derived from human hepatoma, and the cells were cultured in the presence of 5% CO2 at 37° C. for 48 hours. The culture supernatant after the culturing was removed, and Hoechest 33258 (Invitrogen), which is a nucleic acid staining solution, was added, followed by allowing the resulting mixture to react in the dark at room temperature for 20 minutes. The resultant was washed with PBS solution. Then the fluorescence intensity was measured with a microplate analyzer (Fusion-α, Packard), and FLA (a relative value when taking amiodarone hydrochloride (10 μM) as 1, the amiodarone hydrochloride being a positive control substance) was calculated according to the following equations. The case where FLA was less than 1 was judged as negative, and the case where FLA was not less than 1 was judged as positive. […]"}, "[1]": {"tested_on": "skin swelling response in type IV allergic dermatitis model", "assay": "Skin swelling response in type IV allergic dermatitis model", "assay_type": "in vivo", "conditions": "BALB/c mouse, 24 hours after induction", "experimental": "The action of Compound (I) on skin swelling response in mouse allergic dermatitis models was studied. As the allergic dermatitis models, models partially modified from a type I allergic dermatitis model and a type IV allergic dermatitis model described in documents (Inflamm. Res., 1998, Vol. 47, pp. 506-511 and Int. Arch. Allergy. Appl. Immunol., 1990, Vol. 92, pp. 356-360) were used.\nTo the back of each BALB/c mouse (female, 7-week old, Charles River Laboratories Japan, Inc.), 25 μL of 0.5% DNFB solution dissolved in acetone:olive oil (4:1) was applied. On the next day, the same operations were repeated to actively sensitize the mouse. Four days after the sensitization, 20 μL of 0.2% DNFB solution dissolved in acetone:olive oil (4:1) was applied to the auricle of the sensitized mouse to induce inflammation. Twenty four hours after the induction, the thickness of the auricle was measured using a Digimatic Indicator (Mitutoyo). Each test compound was dissolved in ethanol and 20 μL of 0.5 w/v % solution was applied to the auricle at 1 hour before the induction; or each test compound was suspended in 0.5% methylcellulose (Wako Pure Chemical Industries, Ltd.) and the resulting solution was orally administered at 30 mg/kg at 1 hour before the induction. The swelling ratio of the auricle was calculated according to the following equation: Auricular Swelling Ratio(%)=(A−B)/B×100"}, "[2]": {"tested_on": "hyperalgesia in Chung model", "assay": "Hyperalgesia in neuropathic pain model (Chung model), von Frey test", "assay_type": "in vivo", "conditions": "SD rat, Chung model day 7, oral 100 mg/kg, 90 minutes after administration", "excerpt": "(§1) The action of Compound (I) on hyperalgesia in pain models was studied. As the pain models, models partially modified from an inflammatory pain model (a carrageenin paw edema pain model) and neuropathic pain models (Bennett model and Chung model) described in documents (Anesth. Analg., 2009, Vol. 108, pp. 1680-1687; Pain, 1988, Vol. 33, pp. 87-107; and Pain, 1992, Vol. 50, pp. 355-363) were used.\nThe Chung model was produced by completely ligating the L5 and L6 spinal nerves of each Crl:CD (SD) rat (male, 6-week old, Charles River Laboratories Japan, Inc.) with a silk suture (5-0). Seven days after the Chung model was produced, each test compound was orally administered, and von Frey test was performed 90 minutes after the administration. In addition, fifteen days after the Chung model was produced, each test compound was orally administered, and plantar test was performed 90 minutes after the administration. The von Frey test was carried out by measuring the pain threshold (g) of the left footpad (model foot) using Dynamic Plantar Aesthesiometer (37400, Ugo Basile) wherein the maximum pressure was set to 30.0 g and the time required to reach the maximum pressure was set to 40 seconds. The plantar test was carried out by the method described above. […]"}, "[3]": {"tested_on": "hyperalgesia in Chung model", "assay": "Hyperalgesia in neuropathic pain model (Chung model), plantar test", "assay_type": "in vivo", "conditions": "SD rat, Chung model day 15, oral 100 mg/kg, 90 minutes after administration; FIG. 3", "excerpt": "as §1\nThe Bennett model was produced by lightly ligating the sciatic nerve in the left thigh of each Crl:CD (SD) rat (male, 6-week old, Charles River Laboratories Japan, Inc.) at 4 points with chromic catgut (4-0). Fourteen days after the Bennett model was produced, each test compound was orally administered, and plantar test was performed 90 minutes after the administration. The plantar test was carried out by measuring the pain threshold (sec) of the left footpad (model foot) using a plantar thermal stimulation device (Plantar test 7370, Ugo Basile) wherein the thermal stimulus intensity was set to 60. Each test compound was suspended in 0.5 w/v % methylcellulose (Wako Pure Chemical Industries, Ltd.) and the obtained solution was orally administered. Compound 46b described in the Examples was administered at a dose of 100 mg/kg, and gabapentin (Toronto Research Chemicals), which is an anticonvulsant, was administered as a comparative control agent at a dose of 100 mg/kg. […]"}}, "data": [{"smiles": "COc1c(NC(=O)N[C@@H]2Cc3ccccc3[C@@H]2O)cc(C(C)(C)C)cc1[C@@H](O)C(F)(F)F", "note": "[Compound 46b, 1-(5-tert-butyl-2-methoxy-3-((R)-2,2,2-trifluoro-1-hydroxyethyl)phenyl)-3-((1S,2R)-1-hydroxy-2,3-dihydro-1H-indene-2-yl)urea]", "values": [{"measurement": "IC50", "setting": "TNFα production", "result": 508, "unit": "nM"}, {"measurement": "FLA value (relative to amiodarone hydrochloride 10 μM as 1)", "setting": "HepG2 cells; concentration up to 10 μM", "result": "less than 1"}, {"measurement": "phospholipidosis judgement", "setting": "HepG2 cells; up to 10 μM, FLA less than 1 = negative", "result": "negative"}, {"measurement": "suppression ratio of auricular swelling, oral administration", "setting": "[1]; 30 mg/kg oral 1 hour before induction", "result": 37.7, "unit": "%"}, {"measurement": "suppression ratio of auricular swelling, auricular application", "setting": "[1]; 20 μL of 0.5 w/v % solution on auricle 1 hour before induction", "result": 49.2, "unit": "%"}, {"measurement": "pain threshold, von Frey test", "setting": "[2]", "result": "7.0 ± 0.3", "unit": "g"}, {"measurement": "pain threshold (sec), plantar test, compared to solvent-administered group", "setting": "[3]", "result": "significantly elevated"}]}]}
